What was measured:
[1] = test system: TLR7; test: Glutaraldehyde crosslinking assay of ligand-induced TLR7 dimerization; assay type: biochemical, Monkey (Macaca mulatta)
Method: The recombinant TLR7 proteins expressed in Drosophila S2 cells (Thermo Fisher Scientific) using Monkey (Macaca mulatta) TLR7 extracellular domain expression construct with N167Q, N399Q, N488Q and N799Q mutations and cleavable Z-loop and C-terminal protein A tag were prepared and were stored in a buffer containing 10 mM Tris-HCl pH 7.5 and 150 mM NaCl at concentrations of 10–15 mg ml^−1. Briefly, the purification steps included IgG affinity purification, the Z-loop and the protein A tag cleavage, and gel-filtration chromatography. Glycan-trimmed TLR7 proteins, expressed in the presence of 1.5 mg l^−1 kifunensine (Glycosyn) and treated by Endo Hf (New England Biolabs) were used for crystallization. Glycan-untrimmed proteins were used in ITC analysis, crosslinking assay, negative-staining EM and cryo-EM (200 kV microscopes) analyses. Glycan-trimmed TLR7 proteins with partially-uncleaved protein A tag were used for cryo-EM analysis using Tatan Krios (Supplementary Fig. 11).
For glutaraldehyde crosslinking assay (Fig. 2b), proteins were buffer exchanged into a buffer containing 10 mM HEPES-NaOH, pH 8.0, 150 mM NaCl and were concentrated to ~13 mg/ml using Amicon Ultra devices (Merck). Protein concentrations were adjusted to 25 µM using buffers containing 10 mM HEPES-NaOH, pH 7.0, 150 mM NaCl (for neutral condition) or 50 mM citrate-NaOH pH 5.0, 150 mM NaCl (for acidic condition). Cpd-3, Cpd-6 or Cpd-7 were added to final concentrations of 100 or 1000 µM. The reactions were started by adding glutaraldehyde (Wako) to a final concentration of 5 mM (for neutral condition) or 20 mM (for acidic condition), incubated at ambient temperature for 25 min and quenched by adding Tris-HCl pH 7.5 to a final concentration of 100 mM. Crosslinked samples were analyzed by non-reducing SDS-PAGE. Quantitative analysis of the SDS-PAGE gel image was performed with Image-J.

[2] = target: T1, TLR7 (Homo sapiens, UniProt Q9NYK1); test: Human TLR7 reporter gene agonistic activity assay; assay type: cell-based; parameters: host or cells: HEK293 (TLR7/NF-κB/SEAPorter)
T1 sequence (Q9NYK1 27-1049): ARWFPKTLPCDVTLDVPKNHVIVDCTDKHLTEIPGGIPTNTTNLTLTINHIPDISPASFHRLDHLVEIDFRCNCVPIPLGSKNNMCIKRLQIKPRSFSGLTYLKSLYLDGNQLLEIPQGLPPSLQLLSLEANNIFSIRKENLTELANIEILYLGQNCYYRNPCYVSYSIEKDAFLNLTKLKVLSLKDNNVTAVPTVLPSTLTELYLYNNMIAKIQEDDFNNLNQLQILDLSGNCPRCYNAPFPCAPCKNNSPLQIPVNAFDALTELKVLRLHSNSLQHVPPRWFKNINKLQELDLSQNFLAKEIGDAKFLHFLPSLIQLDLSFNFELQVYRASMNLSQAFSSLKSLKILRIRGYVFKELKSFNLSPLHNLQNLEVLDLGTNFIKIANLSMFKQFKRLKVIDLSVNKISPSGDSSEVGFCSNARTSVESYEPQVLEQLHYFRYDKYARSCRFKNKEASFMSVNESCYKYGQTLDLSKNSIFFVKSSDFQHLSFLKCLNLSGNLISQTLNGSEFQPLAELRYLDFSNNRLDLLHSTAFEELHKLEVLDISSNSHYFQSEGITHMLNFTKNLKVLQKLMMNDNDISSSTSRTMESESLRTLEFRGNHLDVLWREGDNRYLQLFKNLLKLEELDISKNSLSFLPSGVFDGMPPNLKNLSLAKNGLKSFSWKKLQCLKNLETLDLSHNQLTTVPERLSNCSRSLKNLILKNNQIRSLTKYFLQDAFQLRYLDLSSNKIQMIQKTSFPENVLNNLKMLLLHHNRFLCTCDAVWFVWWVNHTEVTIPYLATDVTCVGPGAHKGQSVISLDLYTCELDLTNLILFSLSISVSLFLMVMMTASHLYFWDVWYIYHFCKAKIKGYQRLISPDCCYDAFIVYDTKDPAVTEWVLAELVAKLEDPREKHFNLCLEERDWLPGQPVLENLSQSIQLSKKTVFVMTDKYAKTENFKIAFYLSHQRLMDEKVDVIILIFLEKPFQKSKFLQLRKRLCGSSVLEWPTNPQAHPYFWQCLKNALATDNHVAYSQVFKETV
Method: Compounds were dissolved in dimethyl sulfoxide. Before stimulation with compound, Human TLR7 reporter cell line (Novus Biological) was seeded in 96-well microtiter plate (AGC techno glass) at 5 × 10^4 cells/well in DMEM (GIBCO) with 10% fetal bovine serum (GIBCO), and 10 ug/ml Blastcidin S HCl (GIBCO) and incubated at 37 °C in 5% CO2. The plates were incubated over-night and then stimulated with various concentrations of compound and R848. The plates were then incubated an additional 20 ± 1 h at 37 °C in 5% CO2 and then the secreted embryonic alkaline phosphatase (SEAP) activity was measured as activation of human TLR7. The SEAP activity was evaluated as follows: pNPP (Invitrogen, USA) was added to the incubated sample (50 μl/well); after 15 min, 4 M sodium hydroxide solution (nacalai tesque, Japan) was added thereto (50 μl/well) to quench the reaction; and the absorbance of each sample was measured at 405 nm with microplate reader SpectraMax M4 (Molecular Devices, USA).

[3] = pH 5.0, ligand + (100 or 1000 µM used)
[4] = pH 5.0, ligand ++ (100 or 1000 µM used)
[5] = pH 7.0, ligand + (100 or 1000 µM used)
[6] = pH 7.0, ligand ++ (100 or 1000 µM used)

activation of human TLR7, reporter signal ([2]; compound 0.001 nM (as headed)) | activation of human TLR7, reporter signal ([2]; compound 0.003 nM (as headed)) | activation of human TLR7, reporter signal ([2]; compound 0.01 nM (as headed)) | activation of human TLR7, reporter signal ([2]; compound 0.03 nM (as headed)) | activation of human TLR7, reporter signal ([2]; compound 0.1 nM (as headed)) | activation of human TLR7, reporter signal ([2]; compound 0.3 nM (as headed)) | activation of human TLR7, reporter signal ([2]; compound 1 nM (as headed)) | activation of human TLR7, reporter signal ([2]; compound 3 nM (as headed)) | activation of human TLR7, reporter signal ([2]; compound 10 nM (as headed)) | activation of human TLR7, reporter signal ([2]; compound 30 nM (as headed)) | activation of human TLR7, reporter signal ([2]; compound 100 nM (as headed)) | Structure (SMILES) | ligand-induced TLR7 dimerization ([1]; neutral or acidic pH) | Band intensity Dimer [1, 3] | Band intensity Monomer [1, 3] | Band intensity Dimer [1, 4] | Band intensity Monomer [1, 4] | Band intensity Dimer [1, 5] | Band intensity Monomer [1, 5] | Band intensity Dimer [1, 6] | Band intensity Monomer [1, 6]
– | – | – | – | – | – | – | – | – | – | – | COCCOc1nc(N)c2[nH]c(=O)n(Cc3cccnc3)c2n1 [Cpd-3] | induced almost complete dimerization under both neutral and acidic conditions | 16031.2 | 5165.8 | 16425.6 | 4634.68 | 17958.5 | 7371.24 | 17537.6 | 7105.24
-0.0355 | -0.0898 | -0.0215 | 0.2447 | 1.76 | 3.124 | 3.25 | 3.172 | 3.25 | 3.234 | 3.25 | CCOCc1nc2c(N)nc3ccccc3c2n1CC(C)(C)O [R848, reference compound] | – | – | – | – | – | – | – | – | –
